Holding throughout (assay type): cell-based
Common to all, as to conditions: 24 h incubation, visual reading

Test [1] concerns Streptococcus pneumoniae MDR ATCC 700677. Kind of test: MIC assay, S. pneumoniae MDR ATCC 700677. The gist of the method: (§1)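 Mid-log cultures in MHB were added at 5×10e5 CFU/mL to compounds diluted twofold from 8 to 0.003 μg/ml. Visual inspection after 24 h incubation at 37° C. gave the MIC, the lowest concentration without visible growth.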
Test [2] relates to Enterococcus faecium MDR Van A ATCC 51559. The experiment in a line: MIC assay, E. faecium MDR Van A ATCC 51559. The gist of the method:
as §1

The subject of test [3] is Staphylococcus aureus MRSA ATCC 43300. The experiment in a line: MIC assay, S. aureus MRSA ATCC 43300. A digest of the protocol: as §1

This note sets out measurements from US10947271B2, “Antibacterial agents” (THE UNIVERSITY OF QUEENSLAND, priority 2014, dated 2021).

Consider `CCCCCCCN1CCC(C(=O)N[C@@H](CCCCN)C(=O)N[C@@H](CCCCN)C(=O)N[C@@H](CCCCNC(=O)[C@H]2NC(=O)[C@H]3NC(=O)[C@H](NC(=O)[C@@H]4NC(=O)[C@H](CC(N)=O)NC(=O)[C@H](NC(=O)[C@@H](CC(C)C)NC)[C@H](O)c5ccc(c(Cl)c5)Oc5cc4cc(c5O[C@@H]4O[C@H](CO)[C@@H](O)[C@H](O)[C@H]4O[C@H]4C[C@](C)(N)[C@H](O)[C@H](C)O4)Oc4ccc(cc4Cl)[C@H]3O)c3ccc(O)c(c3)-c3c(O)cc(O)cc32)C(N)=O)CC1` [MCC_004820], for which the “Minimum Inhibitory Concentration (MIC) S. pneumoniae ATCC 700677” value in test [1] is given as “xxx (xxx = 0.1-<1)”. The “Minimum Inhibitory Concentration (MIC) E. faecium ATCC51559” value in test [2] is given as “x (x = >4)”. For the same compound, the “Minimum Inhibitory Concentration (MIC) Staph. aureus ATCC43300” value in test [3] was “xxxx (xxxx = 0.01-<0.1)”.
Regarding `CNC(=O)[C@H](CCCCNC(=O)[C@H]1NC(=O)[C@H]2NC(=O)[C@H](NC(=O)[C@@H]3NC(=O)[C@H](CC(N)=O)NC(=O)[C@H](NC(=O)[C@@H](CC(C)C)NC)[C@H](O)c4ccc(c(Cl)c4)Oc4cc3cc(c4O[C@@H]3O[C@H](CO)[C@@H](O)[C@H](O)[C@H]3O[C@H]3C[C@](C)(N)[C@H](O)[C@H](C)O3)Oc3ccc(cc3Cl)[C@H]2O)c2ccc(O)c(c2)-c2c(O)cc(O)cc21)NC(=O)[C@H](CCCCN)NC(=O)[C@H](CCCCN)NC(=O)[C@H](CCCCNC(=O)Cc1ccc(-c2ccccc2)cc1)NC(=O)Cc1ccc(-c2ccccc2)cc1` [MCC_000652], in test [1], the “Minimum Inhibitory Concentration (MIC) S. pneumoniae ATCC 700677” value is reported as “xxxxx (xxxxx = <0.01)”. Further, in test [2], the “Minimum Inhibitory Concentration (MIC) E. faecium ATCC51559” value is “xxx (xxx = 0.1-<1)”. Further, the “Minimum Inhibitory Concentration (MIC) Staph. aureus ATCC43300” value in test [3] is on record as “xxxxx (xxxxx = <0.01)”.
For `CNC(=O)C(CCCCNC(=O)C1NC(=O)C2NC(=O)C(NC(=O)C3NC(=O)C(CC(N)=O)NC(=O)C(NC(=O)C(CC(C)C)NC)C(O)c4ccc(c(Cl)c4)Oc4cc3cc(c4OC3OC(CO)C(O)C(O)C3OC3CC(C)(N)C(O)C(C)O3)Oc3ccc(cc3Cl)C2O)c2ccc(O)c(c2)-c2c(O)cc(O)cc21)NC(=O)C(CCCCN)NC(=O)C(CCCCNC(=O)c1ccc(OCc2ccccc2)cc1)NC(=O)c1ccc(OCc2ccccc2)cc1` (stereo not drawn) [MCC_000519], in test [1], the “Minimum Inhibitory Concentration (MIC) S. pneumoniae ATCC 700677” value was “xxxxx (xxxxx = <0.01)”. Further, in test [2], the “Minimum Inhibitory Concentration (MIC) E. faecium ATCC51559” value is given as “xx (xx = 1-4)”. Besides, the “Minimum Inhibitory Concentration (MIC) Staph. aureus ATCC43300” value in test [3] is “xxxxx (xxxxx = <0.01)”.
Regarding `CCCCCCC(CCCC)C(=O)NCCCC[C@H](NC(=O)C(CCCC)CCCCCC)C(=O)N[C@@H](CCCCN)C(=O)N[C@@H](CCCCN)C(=O)N[C@@H](CCCCNC(=O)[C@H]1NC(=O)[C@H]2NC(=O)[C@H](NC(=O)[C@@H]3NC(=O)[C@H](CC(N)=O)NC(=O)[C@H](NC(=O)[C@@H](CC(C)C)NC)[C@H](O)c4ccc(c(Cl)c4)Oc4cc3cc(c4O[C@@H]3O[C@H](CO)[C@@H](O)[C@H](O)[C@H]3O[C@H]3C[C@](C)(N)[C@H](O)[C@H](C)O3)Oc3ccc(cc3Cl)[C@H]2O)c2ccc(O)c(c2)-c2c(O)cc(O)cc21)C(=O)NC` (stereo partly drawn) [MCC_000773], in test [1], the “Minimum Inhibitory Concentration (MIC) S. pneumoniae ATCC 700677” value was “xxxx (xxxx = 0.01-<0.1)”. In addition, in test [2], the “Minimum Inhibitory Concentration (MIC) E. faecium ATCC51559” value is listed as “xxx (xxx = 0.1-<1)”. Besides, the “Minimum Inhibitory Concentration (MIC) Staph. aureus ATCC43300” value in test [3] is on record as “xxxx (xxxx = 0.01-<0.1)”.
Consider `CNC(=O)C(CCCCNC(=O)C1NC(=O)C2NC(=O)C(NC(=O)C3NC(=O)C(CC(N)=O)NC(=O)C(NC(=O)C(CC(C)C)NC)C(O)c4ccc(c(Cl)c4)Oc4cc3cc(c4OC3OC(CO)C(O)C(O)C3OC3CC(C)(N)C(O)C(C)O3)Oc3ccc(cc3Cl)C2O)c2ccc(O)c(c2)-c2c(O)cc(O)cc21)NC(=O)C(CCCCN)NC(=O)C(CCCCN)NC(=O)CCCCCCCCc1ccccc1` (stereo not drawn) [MCC_000509], for which, in test [1], the “Minimum Inhibitory Concentration (MIC) S. pneumoniae ATCC 700677” value is given as “xxxxx (xxxxx = <0.01)”. In addition, in test [2], the “Minimum Inhibitory Concentration (MIC) E. faecium ATCC51559” value was “xx (xx = 1-4)”. Further, in test [3], the “Minimum Inhibitory Concentration (MIC) Staph. aureus ATCC43300” value is given as “xxxx (xxxx = 0.01-<0.1)”.
On the same counts, the results for `CCCCCCCCCCCCCC(=O)NC(CCCCN)C(=O)NC(CCCCN)C(=O)NC(CCCCN)C(=O)NC(CCCCNC(=O)C1NC(=O)C2NC(=O)C(NC(=O)C3NC(=O)C(CC(N)=O)NC(=O)C(NC(=O)C(CC(C)C)NC)C(O)c4ccc(c(Cl)c4)Oc4cc3cc(c4OC3OC(CO)C(O)C(O)C3OC3CC(C)(N)C(O)C(C)O3)Oc3ccc(cc3Cl)C2O)c2ccc(O)c(c2)-c2c(O)cc(O)cc21)C(=O)OC` (stereo not drawn) [MCC_000635] are “xxxxx (xxxxx = <0.01)”, “xxxxx (xxxxx = <0.01)” and “xxxxx (xxxxx = <0.01)”.
For `CCCCCCCC(=O)N[C@@H](CCCCN)C(=O)N[C@@H](CCCCNC(=O)[C@H]1NC(=O)[C@H]2NC(=O)[C@H](NC(=O)[C@@H]3NC(=O)[C@H](CC(N)=O)NC(=O)[C@H](NC(=O)[C@@H](CC(C)C)NC)[C@H](O)c4ccc(c(Cl)c4)Oc4cc3cc(c4O[C@@H]3O[C@H](CO)[C@@H](O)[C@H](O)[C@H]3O[C@H]3C[C@](C)(N)[C@H](O)[C@H](C)O3)Oc3ccc(cc3Cl)[C@H]2O)c2ccc(O)c(c2)-c2c(O)cc(O)cc21)C(=O)O` [MCC_005222], in that order: “xx (xx = 1-4)”, “x (x = >4)” and “xx (xx = 1-4)”.
As to `CCCCCCCCCC(=O)N[C@@H](CCCNC(=N)N)C(=O)N1CCC(CNC(=O)[C@H]2NC(=O)[C@H]3NC(=O)[C@H](NC(=O)[C@@H]4NC(=O)[C@H](CC(N)=O)NC(=O)[C@H](NC(=O)[C@@H](CC(C)C)NC)[C@H](O)c5ccc(c(Cl)c5)Oc5cc4cc(c5O[C@@H]4O[C@H](CO)[C@@H](O)[C@H](O)[C@H]4O[C@H]4C[C@](C)(N)[C@H](O)[C@H](C)O4)Oc4ccc(cc4Cl)[C@H]3O)c3ccc(O)c(c3)-c3c(O)cc(O)cc32)CC1` [MCC_005484], in test [1], the “Minimum Inhibitory Concentration (MIC) S. pneumoniae ATCC 700677” value was “xxxxx (xxxxx = <0.01)”. Also, the “Minimum Inhibitory Concentration (MIC) E. faecium ATCC51559” value in test [2] is on record as “x (x = >4)”. Further, the “Minimum Inhibitory Concentration (MIC) Staph. aureus ATCC43300” value in test [3] is recorded as “xxxxx (xxxxx = <0.01)”.
Turning to `CCCCCOc1ccc(C(=O)N[C@@H](CCCCN)C(=O)N[C@@H](CCCCN)C(=O)N[C@@H](CCCCNC(=O)[C@H]2NC(=O)[C@H]3NC(=O)[C@H](NC(=O)[C@@H]4NC(=O)[C@H](CC(N)=O)NC(=O)[C@H](NC(=O)[C@@H](CC(C)C)NC)[C@H](O)c5ccc(c(Cl)c5)Oc5cc4cc(c5O[C@@H]4O[C@H](CO)[C@@H](O)[C@H](O)[C@H]4O[C@H]4C[C@](C)(N)[C@H](O)[C@H](C)O4)Oc4ccc(cc4Cl)[C@H]3O)c3ccc(O)c(c3)-c3c(O)cc(O)cc32)C(=O)O)cc1` [MCC_005504], the “Minimum Inhibitory Concentration (MIC) S. pneumoniae ATCC 700677” value in test [1] is on record as “xxx (xxx = 0.1-<1)”. For the same compound, the “Minimum Inhibitory Concentration (MIC) E. faecium ATCC51559” value in test [2] is “x (x = >4)”. Also, in test [3], the “Minimum Inhibitory Concentration (MIC) Staph. aureus ATCC43300” value is listed as “xxx (xxx = 0.1-<1)”.
Consider `CCCCCCCCCC(=O)N[C@@H](CCCCN)C(=O)N1CCC(CNC(=O)[C@H]2NC(=O)[C@H]3NC(=O)[C@H](NC(=O)[C@@H]4NC(=O)[C@H](CC(N)=O)NC(=O)[C@H](NC(=O)[C@@H](CC(C)C)NC)[C@H](O)c5ccc(c(Cl)c5)Oc5cc4cc(c5O[C@@H]4O[C@H](CO)[C@@H](O)[C@H](O)[C@H]4O[C@H]4C[C@](C)(N)[C@H](O)[C@H](C)O4)Oc4ccc(cc4Cl)[C@H]3O)c3ccc(O)c(c3)-c3c(O)cc(O)cc32)CC1` [MCC_005488], for which the “Minimum Inhibitory Concentration (MIC) S. pneumoniae ATCC 700677” value in test [1] was “xxxx (xxxx = 0.01-<0.1)”. Also, the “Minimum Inhibitory Concentration (MIC) E. faecium ATCC51559” value in test [2] is “xx (xx = 1-4)”. For the same compound, the “Minimum Inhibitory Concentration (MIC) Staph. aureus ATCC43300” value in test [3] was “xxxx (xxxx = 0.01-<0.1)”.
`CCCCCCCCCCCCCC(=O)N[C@@H](CCCCN)C(=O)N[C@@H](CCCCN)C(=O)N[C@@H](CCCCNC(=O)[C@H]1NC(=O)[C@H]2NC(=O)[C@H](NC(=O)[C@@H]3NC(=O)[C@H](CC(N)=O)NC(=O)[C@H](NC(=O)[C@@H](CC(C)C)NC)[C@H](O)c4ccc(c(Cl)c4)Oc4cc3cc(c4O[C@@H]3O[C@H](CO)[C@@H](O)[C@H](O)[C@H]3O[C@H]3C[C@](C)(N)[C@H](O)[C@H](C)O3)Oc3ccc(cc3Cl)[C@H]2O)c2ccc(O)c(c2)-c2c(O)cc(O)cc21)C(=O)NC` [MCC_000224]: the “Minimum Inhibitory Concentration (MIC) S. pneumoniae ATCC 700677” value in test [1] was “xxxxx (xxxxx = <0.01)”. Also, the “Minimum Inhibitory Concentration (MIC) E. faecium ATCC51559” value in test [2] is recorded as “xxx (xxx = 0.1-<1)”. The “Minimum Inhibitory Concentration (MIC) Staph. aureus ATCC43300” value in test [3] is “xxxxx (xxxxx = <0.01)”.
As for `CCCCC=CCCCCCCCC(=O)NC(CCCCN)C(=O)NC(CCCCN)C(=O)NC(CCCCNC(=O)C1NC(=O)C2NC(=O)C(NC(=O)C3NC(=O)C(CC(N)=O)NC(=O)C(NC(=O)C(CC(C)C)NC)C(O)c4ccc(c(Cl)c4)Oc4cc3cc(c4OC3OC(CO)C(O)C(O)C3OC3CC(C)(N)C(O)C(C)O3)Oc3ccc(cc3Cl)C2O)c2ccc(O)c(c2)-c2c(O)cc(O)cc21)C(=O)NC` (stereo not drawn) [MCC_000498], in test [1], the “Minimum Inhibitory Concentration (MIC) S. pneumoniae ATCC 700677” value is recorded as “xx (xx = 1-4)”. For the same compound, in test [2], the “Minimum Inhibitory Concentration (MIC) E. faecium ATCC51559” value is “x (x = >4)”. For the same compound, the “Minimum Inhibitory Concentration (MIC) Staph. aureus ATCC43300” value in test [3] is listed as “xx (xx = 1-4)”.
For `CCCCCCCCC(=O)N[C@@H](CCCCN(C)C)C(=O)N[C@@H](CCCCNC(=O)[C@H]1NC(=O)[C@H]2NC(=O)[C@H](NC(=O)[C@@H]3NC(=O)[C@H](CC(N)=O)NC(=O)[C@H](NC(=O)[C@@H](CC(C)C)NC)[C@H](O)c4ccc(c(Cl)c4)Oc4cc3cc(c4O[C@@H]3O[C@H](CO)[C@@H](O)[C@H](O)[C@H]3O[C@H]3C[C@](C)(N)[C@H](O)[C@H](C)O3)Oc3ccc(cc3Cl)[C@H]2O)c2ccc(O)c(c2)-c2c(O)cc(O)cc21)C(=O)O` [MCC_007386], the “Minimum Inhibitory Concentration (MIC) S. pneumoniae ATCC 700677” value in test [1] is listed as “xx (xx = 1-4)”. In addition, in test [2], the “Minimum Inhibitory Concentration (MIC) E. faecium ATCC51559” value was “x (x = >4)”. The “Minimum Inhibitory Concentration (MIC) Staph. aureus ATCC43300” value in test [3] is listed as “xx (xx = 1-4)”.
